ChEMBL document CHEMBL3045052, “Effect of the lipophilic parameter (log P) on the anti-parasitic activity of imidazo[1,2-a]pyridine derivatives” (Med Chem Res, 2012)
Values after ≈ are worked out from the molar mass of the structure shown.

Columns and labels:
[1] = test system: Trichomonas vaginalis; assay: Antiparasitic activity against Trichomonas vaginalis GT3 after 48 hr by Alamar blue assay; format: functional, organism-based; conditions: GT3, 48 h
[2] = Partition coefficient, log P of compound at 1:1 1-octanol/water volume ratio by spectrophotometer; format: physicochemical
[3] = Partition coefficient, log P of compound at 1:2 1-octanol/water volume ratio by spectrophotometer; format: physicochemical
[4] = test system: Trichomonas vaginalis; assay: Antiparasitic activity against Trichomonas vaginalis GT3 after 24 hr by Alamar blue assay; format: functional; conditions: GT3, 24 h
[5] = Partition coefficient, log P of compound at 2:1 1-octanol/water volume ratio by spectrophotometer; format: physicochemical

Structure (SMILES)	MIC [1]	logP [2]	logP [3]	MIC [4]	logP [5]	EC50 [1]
CCOC(=O)c1nc2ccccn2c1[N+](=O)[O-]	2.13 µM (≈ 0.501 µg/mL)	0.983	1.04	2.13 µM (≈ 0.501 µg/mL)	0.963	3.96 µM
O=C(O)c1nc2ccccn2c1[N+](=O)[O-]	19.3 µM (≈ 4 µg/mL)	-0.041	-0.042	19.3 µM (≈ 4 µg/mL)	-0.038	21.1 µM
Cc1cccc2nc(C(N)=O)c([N+](=O)[O-])n12	9.09 µM (≈ 2 µg/mL)	0.67	0.69	9.09 µM (≈ 2 µg/mL)	0.695	14.6 µM
N#Cc1nc2ccccn2c1[N+](=O)[O-]	2.66 µM (≈ 0.5 µg/mL)	0.691	0.641	5.32 µM (≈ 1 µg/mL)	0.692	9.68 µM
Cc1cccc2nc(NC3CCCCC3)c([N+](=O)[O-])n12	29.2 µM (≈ 8.01 µg/mL)	1.56	1.5	58.4 µM (≈ 16 µg/mL)	1.5	64.3 µM
Cc1ncc([N+](=O)[O-])n1CCO [METRONIDAZOLE]	2.92 µM (≈ 0.5 µg/mL)	0.12	0.11	2.92 µM (≈ 0.5 µg/mL)	0.115	1.2 µM

Continued by falling MIC [1], values first:

MIC [1]	logP [2]	logP [3]	MIC [4]	logP [5]	Structure (SMILES)	EC50 [1]
30.8 µM (≈ 8.02 µg/mL)	1.54	1.5	61.5 µM (≈ 16 µg/mL)	1.5	O=[N+]([O-])c1c(NC2CCCCC2)nc2ccccn12	61.5 µM
9.71 µM (≈ 2 µg/mL)	-0.515	-0.569	9.71 µM (≈ 2 µg/mL)	-0.54	NC(=O)c1nc2ccccn2c1[N+](=O)[O-]	41.3 µM
4.02 µM (≈ 1 µg/mL)	1.27	1.2	4.02 µM (≈ 1 µg/mL)	1.3	CCOC(=O)c1nc2cccc(C)n2c1[N+](=O)[O-]	9.11 µM
3.07 µM (≈ 0.501 µg/mL)	0.938	0.96	3.01 µM (≈ 0.491 µg/mL)	0.922	O=[N+]([O-])c1cnc2ccccn12	2.45 µM
2.48 µM (≈ 0.501 µg/mL)	1.19	1.12	4.95 µM (≈ 1 µg/mL)	1.08	Cc1cccc2nc(C#N)c([N+](=O)[O-])n12	12.1 µM
